This series in a line: Comparison of solubility in organic solvents at room temperature. In kind it is physicochemical. An excerpt: The compounds of the invention have very good solubility in nonpolar solvents (aromatics, alkylaromatics, cyclohexane) and dipolar aprotic solvents (ketones, ethers, esters, amides, sulfones, sulfoxides etc., such as acetone, butanone, cyclohexanone, di-n-butyl ether, THF, dioxane, 3-phenoxytoluene, anisole, ethyl acetate, butyl acetate, hexyl acetate, methyl benzoate, DMF, DMAC, NMP, DMSO, dimethyl sulfone, sulfolane, etc.) and mixtures thereof, and form solutions that are stable for a long period of time. Preferred concentrations are 5-500 mg/ml, more preferably 20-200 mg/ml.

Regarding `c1ccc(-c2c(-c3ccccc3)c(-c3ccccc3)c(-c3ccc(-c4cc(-c5ccccn5)[c]5cc4-c4ccccc4-c4cc6cc(c4)-c4ccccc4-c4c[c](c(-c7ccccn7)cc4-c4ccc(-c7c(-c8ccccc8)c(-c8ccccc8)c(-c8ccccc8)c(-c8ccccc8)c7-c7ccccc7)cc4)[Ir]5[c]4cc(c(-c5ccc(-c7c(-c8ccccc8)c(-c8ccccc8)c(-c8ccccc8)c(-c8ccccc8)c7-c7ccccc7)cc5)cc4-c4ccccn4)-c4ccccc4-6)cc3)c(-c3ccccc3)c2-c2ccccc2)cc1` [Ir(530)], the “Solubility, 3-Phenoxytoluene” value is more than 150 mg/mL; the “Solubility, DMF” value was more than 70 mg/mL; the “Solubility, Cyclohexane” value is more than 5 mg/mL; the “Solubility, n-Butyl benzoate” value is more than 80 mg/mL. Further, the “Solubility, Toluene” value is more than 100 mg/mL.
For the compound `c1ccc(-c2c(-c3ccccc3)c(-c3ccccc3)c(-c3cc[c]([Ir]([c]4ccc(-c5c(-c6ccccc6)c(-c6ccccc6)c(-c6ccccc6)c(-c6ccccc6)c5-c5ccccc5)cc4-c4ccccn4)[c]4ccc(-c5c(-c6ccccc6)c(-c6ccccc6)c(-c6ccccc6)c(-c6ccccc6)c5-c5ccccc5)cc4-c4ccccn4)c(-c4ccccn4)c3)c(-c3ccccc3)c2-c2ccccc2)cc1` [Ir(500)], the “Solubility, 3-Phenoxytoluene” value was more than 150 mg/mL; the “Solubility, DMF” value is more than 70 mg/mL; the “Solubility, Cyclohexane” value is more than 5 mg/mL; the “Solubility, n-Butyl benzoate” value was more than 80 mg/mL. In addition, the “Solubility, Toluene” value is more than 100 mg/mL.

The values above are taken from patent publication US20190280220A1, “METAL COMPLEXES” (Merck Patent GmbH, priority 2016, published 2019).
